This note sets out measurements from ChEMBL document CHEMBL5608189, “Design and synthesis of unique indole-benzosulfonamide oleanolic acid derivatives as potent antibacterial agents against MRSA” (Eur J Med Chem, 2024).

In data set [1] the test system is Cell membrane. The data set can be described thus: Induction of cell membrane in methicillin-resistant Staphylococcus aureus assessed as increase in fluorescence intensity by measuring number of PI-permeable cells at 4 times MIC measured after 2 hrs by PI staining based flow cytometry analysis (reference value: 5.71). In kind it is cell membranes. (In general: In flow cytometry, cells or beads pass a laser one at a time.)

Data set [2] relates to Staphylococcus epidermidis. The data set can be described thus: Antibacterial activity against Staphylococcus epidermidis ATCC 12228 assessed as delay in bacterial growth at 0.5 times MIC measured every 2 hrs for 24 hrs by time kill assay. In kind it is functional, organism-based.
Data set [3] concerns Staphylococcus aureus. In words: Antibacterial activity against methicillin-resistant Staphylococcus aureus assessed as delay in bacterial growth at 0.5 times MIC measured every 2 hrs for 24 hrs by time kill assay. In kind it is functional, organism-based.
The test system of data set [4] is Cell membrane. The data set can be described thus: Disruption of cell membrane integrity in methicillin-resistant Staphylococcus aureus assessed as rupture of cell membrane at 8 times MIC incubated for 8 hrs by TEM analysis. Format: cell membranes.
Data set [5] has as its system Staphylococcus aureus. The data set can be described thus: Antibacterial activity against methicillin-resistant Staphylococcus aureus assessed as inhibition of bacterial growth at 1 times MIC measured every 2 hrs for 24 hrs by time kill assay. Format: functional, organism-based.
In data set [6] the test system is Staphylococcus aureus. The data set can be described thus: Antibacterial activity against methicillin-resistant Staphylococcus aureus infected in female C57BL/6 mouse wound model assessed as log reduction in viable bacterial count at 10 mg/kg administered twice on wounds with 6 hrs interval and measured for 7 days. In kind it is functional. To be noted: time 7 day.

Another data set concerns NIH3T3. The data set can be described thus: Cytotoxicity against mouse NIH3T3 cells assessed as reduction in cell viability upto 64 times MIC incubated for 24 hrs by CCK-8 assay. To be noted: nih3t3, 24 h. Format: toxicity, cell-based. (In general: Formazan colour is commonly taken as a measure of viable cells.)
Data set [7] relates to Staphylococcus aureus. In words: Antibacterial activity against Staphylococcus aureus ATCC 6538 measured after 24 hrs by susceptibility assay. Format: functional.
In data set [8] the test system is Staphylococcus aureus. In words: Induction of intracellular ROS accumulation in methicillin-resistant Staphylococcus aureus assessed as number of fluorescence cells at 8 times MIC incubated for 6 hrs by DCFH-DA staining based flow cytometry analysis (reference value: 3.88).
For data set [9], the system named is Staphylococcus aureus. In words: Antibacterial activity against Staphylococcus aureus ATCC 6538 assessed as inhibition of bacterial growth at 2 to 4 times MIC measured every 2 hrs for 24 hrs by time kill assay relative to control. Format: functional.

Converted amounts (≈) assume the structure as drawn. The source made the active and inactive calls.

With `CC1(C)CC[C@]2(C(=O)NS(=O)(=O)c3ccc(Cl)cc3)CC[C@]3(C)C(=CC[C@@H]4[C@@]5(C)Cc6c([nH]c7c(C(=O)O)cccc67)C(C)(C)[C@@H]5CC[C@]43C)[C@@H]2C1`, the Activity in the data set with Cell membrane [1] is 13.5; with NIH3T3, “Non-Toxic”; in the data set on Staphylococcus aureus [8], 1.99. For the same compound, the outcome (in data set [2]; in the data set with Staphylococcus aureus [3]; in the data set on Cell membrane [4]; in the data set on Staphylococcus aureus [5]) was Active. Moreover, the “log(activity)” value in the data set with Staphylococcus aureus [6] is recorded as approximately 1.6. The MIC against Staphylococcus aureus [7] came out at 1 µM (≈ 0.745 µg/mL). The “inhibition (INH)” value with Staphylococcus aureus [9] is 100%.

Broadly, the MIC is the smallest concentration in the dilution series that meets the test's criterion for growth inhibition. A higher MIC goes with weaker potency.
